In EP1708721B1, “MYOCARDIAL PERFUSION IMAGING USING ADENOSINE RECEPTOR AGONISTS” (Gilead Sciences, Inc., priority 2004, dated 2005):
Values after ≈ are worked out from the molar mass of the structure shown. Read-outs that look alike come from different tables or passages of the source.

Key:
solubility in water = type: physicochemical
Protocol: CVT-3146 has solubility in water of about 50 micrograms/mL. Therefore, CVT-3146 can be dissolved and administered in water so long as the desired weight amount of CVT-3146 can be administered in an acceptable volume. For example, a preferred dose of about 400 micrograms can be administered in 8 mL of water. If this volume is too great for administration purposes, or if the pharmaceutical composition will be stored at other than room temperature (RT), then additional ingredients can be added to the composition to increase the solubility of CVT-3146 in the composition and/or to provide the resulting pharmaceutical composition with other improved properties such as improved stability and storage properties. Pharmaceutical compositions of this invention may include up to about 1 milligram/mL of CVT-3146. It is preferred that pharmaceutical compositions including CVT-3146 include from 50 to 250 micrograms/mL, and more preferably from 50 to 150 micrograms/mL of CVT-3146.

awake dogs = test: increase of coronary blood flow velocity (CBFv) in awake dogs, potency versus adenosine (background statement); type: in vivo; details: relative to adenosine
[1] = half-life of CVT-3146 (background statement); details: in vivo; species not stated; read-out: initial half-life
Protocol: The purpose of this open label study was to determine the magnitude and duration of effect of CVT-3146 (10-500 µg) on CBFv in humans.

human subjects = test: Example 2: dose range study, coronary flow velocity, heart rate and blood pressure after IV bolus; type: in vivo
Protocol: The study included patients undergoing a clinically indicated coronary catheterization with no more than a 70% stenosis in any coronary artery and no more than a 50% stenosis of the study vessel had CBFv determined by Doppler flow wire. Study subject were selected after measuring baseline and peak CBFv after an intracoronary (IC) injection of 18 µg of Ado. 36 subjects were identified as meeting the study criteria of having a peak to baseline CBFv ration of ≥ 2.5 in response to Adenosine,
CVT-3146 was administered to the study subjects by IV bolus in less that 10 seconds in amounts ranging from 10 µg to 500 µg.
The effectiveness of both compounds was measured by monitoring coronary flow velocity. Other coronary parameters that were monitored included heart rate and blood pressure. These parameters were measured in order to evaluate the time to peak dose response, the magnitude of the dose response and the duration of the dose response. Adverse events were also monitored. Coronary blood flow velocity was measured at the left anterior descending coronary artery (LAD) or left circumflex coronary artery (LCx). The velocity measurements were taken by following standard heart catheterization techniques and inserting a 0.014 inch Doppler-tipped Flowire into the LAD or LCx vessel and thereafter monitoring blood flow velocity. In addition, hemodynamic and electrocardiographic measurements were recorded continuously.
Overall, 36 human subjects (n=36) were evaluated. Of the 36, 18 were female and 18 were male. Their mean age was 53.4 and they ranged from 24-72 years in age. Of the 36 subjects evaluated, the LAD vessel of 31 subjects was monitored, and the LCx vessel of 5 subjects was monitored. The following doses (µg) of CVT-3146 were given to the subjects in a single iv bolus: 10 (n=4); 30 (n=6); 100 (n=4); 300 (n=7); 400 (n=9); 500 (n=6).

[2] = Example 3: pharmacokinetic profile after a single IV bolus, three-compartment open model; type: in vivo, human; details: for Vc / Vd / half-life / clearance: Mean (SD); for Vd / half-life / clearance: intravenous; for Vd: read-out: Vss
Protocol: This Example is a study performed to evaluate (1) the maximum tolerated dose of CVT-3146 and (2) the pharmacokinetic profile of CVT-3146 in healthy volunteers, after a single IV bolus dose.
CVT-3146 was administered as an IV bolus (20 seconds) in ascending doses of […], 10, 20 and 30 µg/kg.
Patient safety was monitored by ECG, laboratory assessments, and collection of vital signs and adverse events. Pharmacokinetics: • Plasma samples were drawn during supine phase (Days 1 and 2) at 0, 1, 2, 3, 4, 5, 7,10, 15, 20, 30, 45 minutes after dosing and at 1, 1.5., 2, 4, 6, 8,12 and 24 hours after dosing. Urine was collected for 24 hours for […] excretion. Pharmacodynamics: • The study evaluated the relationship of changes in heart rate to dose in both standing and supine positions and plasma concentration in the supine position.
A three-compartment open model was fit to the data using observed Tmax (1-4 minutes) as the duration of a zero-order infusion. Reliable parameter estimates were obtained for dose of 1-30 µg/kg. Parameters are summarized in the following (Table 2): Table 2

anesthetized dog = test: Example 4: blood flow velocity in various vascular beds, intravascular Doppler catheter; type: in vivo; details: 1.0 µg/kg intravenous bolus
Excerpt: The effects of CVT-3146 were quantified as the average peak blood flow velocity (APV) using intravascular Doppler transducer tipped catheter. Heart rate (HR) and systemic arterial blood pressure (BP) were also monitored. […] Increased blood flow velocity was associated with a small transient increase in HR (16 bpm) and decrease in BP (12 mmHg).

In the case of CNC(=O)c1cnn(-c2nc(N)c3ncn([C@@H]4O[C@H](CO)[C@@H](O)[C@H]4O)c3n2)c1 [CVT-3146, (1-{9-[(4S,2R,3R,5R)-3,4-dihydroxy-5-(hydroxymethyl)oxolan-2-yl]-6-aminopurin-2-yl}pyrazol-4-yl)-N-methylcarboxamide], the solubility (solubility in water) is reported as ~50 µg/mL (≈ 128 µM), the “more potent than adenosine (Ado) in increasing coronary blood flow velocity (CBFv)” value (awake dogs) is reported as > 100 fold and the half-life [1] is reported as 3 min. For the same compound, the “Maximum decrease in diastolic BP” value (human subjects; 400 µg IV bolus) was 10 ± 5 mmHg, the “Maximum decrease in systolic BP” value (human subjects; 400 µg IV bolus) was 20 ± 8 mmHg and the “Maximum increase in heart rate” value (human subjects; 400 µg IV bolus) was 18 ± 8 bpm. The “time coronary blood flow velocity ≥ 2.5-fold above baseline was maintained” value (human subjects; 400 µg IV bolus) was 2.8 min, the “time of maximum decrease in diastolic BP after dosing” value (human subjects; 400 µg IV bolus) was “about 1 minute” and the “time of maximum increase in heart rate after dosing” value (human subjects; 400 µg IV bolus) was “about 1 minute”. The “amount at which plateau peak velocity is reached” value (human subjects; IV bolus) was “less than 100 µg”, the “amount that increases peak flow velocity (as low as)” value (human subjects; IV bolus) was 10 µg and the “time at which peak flow was reached” value (human subjects; all doses (10 to 500 µg IV bolus)) was “about 30 seconds”. The peak effects (human subjects; doses above about 100 µg) was “equivalent to 18 µg adenosine administered IC”, the Vc ([2]; Dose 1 µg/kg, N=3) was 9.84 (4.12) L and the Vc ([2]; Dose 3 µg/kg, N=4) was 13.7 (6.06) L. For the same compound, the Vc ([2]; Dose 10 µg/kg, N=4) was 17.9 (6.11) L, the Vc ([2]; Dose 20 µg/kg, N=8) was 12.5 (5.83) L and the Vc ([2]; Dose 30 µg/kg, N=3) was 15.7 (4.59) L. For the same compound, the Vc ([2]; Total (doses 1-30 µg/kg), N=22) was 13.8 (5.67) L, the Vd ([2]; human, plasma, 1 ug/kg, N=3) was 69 L and the half-life ([2]; human, plasma, 1 ug/kg, N=3, read-out: a Half-life) was 2.14 min. For the same compound, the half-life ([2]; human, plasma, 1 ug/kg, N=3, read-out: β Half-life) was 8.93 min, the half-life ([2]; human, plasma, 1 ug/kg, N=3, read-out: λ Half-life) was 99 min and the Vd ([2]; human, plasma, 3 ug/kg, N=4) was 90 L. It also gave a half-life ([2]; human, plasma, 3 ug/kg, N=4, read-out: a Half-life) of 3.11 min, a half-life ([2]; human, plasma, 3 ug/kg, N=4, read-out: β Half-life) of 17.2 min and a half-life ([2]; human, plasma, 3 ug/kg, N=4, read-out: λ Half-life) of 130 min. For the same compound, the Vd ([2]; human, plasma, 10 ug/kg, N=4) was 101 L, the half-life ([2]; human, plasma, 10 ug/kg, N=4, read-out: a Half-life) was 4.15 min and the half-life ([2]; human, plasma, 10 ug/kg, N=4, read-out: β Half-life) was 50.2 min. It also gave a half-life ([2]; human, plasma, 10 ug/kg, N=4, read-out: λ Half-life) of 132 min, a Vd ([2]; human, plasma, 20 ug/kg, N=8) of 75.2 L and a half-life ([2]; human, plasma, 20 ug/kg, N=8, read-out: a Half-life) of 4.69 min. It also gave a half-life ([2]; human, plasma, 20 ug/kg, N=8, read-out: β Half-life) of 32.6 min, a half-life ([2]; human, plasma, 20 ug/kg, N=8, read-out: λ Half-life) of 117 min and a Vd ([2]; human, plasma, 30 ug/kg, N=3) of 89.6 L. The half-life ([2]; human, plasma, 30 ug/kg, N=3, read-out: a Half-life) was 3 min, the half-life ([2]; human, plasma, 30 ug/kg, N=3, read-out: β Half-life) was 14 min and the half-life ([2]; human, plasma, 30 ug/kg, N=3, read-out: λ Half-life) was 99.4 min. The Vd ([2]; human, plasma, Total (doses 1-30 µg/kg), N=22) was 75.3 L, the half-life ([2]; human, plasma, Total (doses 1-30 µg/kg), N=22, read-out: a Half-life) was 3.73 min and the half-life ([2]; human, plasma, Total (doses 1-30 µg/kg), N=22, read-out: β Half-life) was 27.2 min. It also gave a half-life ([2]; human, plasma, Total (doses 1-30 µg/kg), N=22, read-out: λ Half-life) of 86.4 min, a clearance ([2]; male, human, plasma, 1 ug/kg, N=3) of 737 mL/min and a clearance ([2]; male, human, plasma, 3 ug/kg, N=4) of 668 mL/min. The clearance ([2]; male, human, plasma, 10 ug/kg, N=4) was 841 mL/min, the clearance ([2]; male, human, plasma, 20 ug/kg, N=8) was 743 mL/min and the clearance ([2]; male, human, plasma, 30 ug/kg, N=3) was 1020 mL/min. The clearance ([2]; male, human, plasma, Total (doses 1-30 µg/kg), N=22) was 768 mL/min, the Tmax ([2]; male, human, plasma, IV bolus, supine, read-out: observed Tmax) was 1 to 4 min and the “decrease in BP” value (anesthetized dog) was 12 mmHg. The “small transient increase in HR” value (anesthetized dog) was 16 bpm, the “time to dissipation of effect on blood flow velocity” value (anesthetized dog) was “less than ten” and the “time to peak of effect on blood flow velocity” value (anesthetized dog) was “less than 30 sec”. The “APV increased (average peak blood flow velocity)” value (shortened to “APV increased”) (anesthetized dog; brain arterial vasculature (BA)) was 1.4 ± 0.1 fold, the “APV increased” value (anesthetized dog; forelimb artery (FA)) was 1.2 ± 0.1 fold and the “APV increased” value (anesthetized dog; left circumflex coronary artery (LCX)) was 3.1 ± 0.2 fold. For the same compound, the “APV increased” value (anesthetized dog; pulmonary artery (PA)) was 1.1 ± 0.01 fold.
